Laboratory results as given in patent publication US20050241012A1, “Multigene profiling in the kidney to tailor drug therapy” (priority 2003, published 2005).
Entries after “also recorded” stand apart in the source; their conditions may differ. Counter-ions that a name gives are not always drawn. One block for each molecule: values may come before it.

Columns and labels:
[1] = tested on: renal slices; experiment: Renal tissue slice uptake assay, wild-type and Oat3−/− mice; details: for inhibition of taurocholate, estrone sulfate and para-aminohippurate uptake in wild-type renal slices / ES transport in Oat3−/− renal slices in the presence of inhibitor: 1 mM inhibitor; for ES transport in Oat3−/− renal slices in the presence of inhibitor / renal slice uptake in Oat3−/− mice compared with wild-type: 100 nM estrone sulfate; for renal slice uptake in Oat3−/− mice compared with wild-type: 1 h, taurocholate or para-aminohippurate
Procedure: (§1) Data were calculated as tissue to medium T/M ratios and are presented as mean values ±S. E. (3 slices, treatment).
(§2) Renal and hepatic tissue slice preparation and uptake assays were performed according to standard protocols. Four- to 6-month-old mice were euthanized by CO2 inhalation, and the liver and kidneys were immediately placed into freshly oxygenated ice-cold saline. Tissue slices (˜0.5 mm; ˜5-10 mg, wet weight) were cut with a Stadie-Riggs microtome and maintained in ice-cold modified Cross and Taggart saline (in mM: 95 NaCl, 80 mannitol, 5 KCl, 0.74 CaCl2, and 9.5 Na2PO4, pH 7.4). […] Conditions for the PAH experiments were optimized for Oat1 by the addition of 10 μM glutarate to the uptake buffer. After incubation the slices were removed from the uptake medium, blotted, weighed, dissolved in 1 ml of 1M NaOH, neutralized with 1 ml of 1M HCl, and assayed by liquid scintillation spectroscopy. Duplicate medium samples (50 μl) were also assayed, and data are presented as tissue to medium (T/M) ratios (i.e. dpm/mg of tissue divided by dpm/μl of medium).
Statistics. The renal slice data were compared using unpaired Student's t-test. Differences in mean values between the control and inhibited conditions were considered significant when p≦0.05.

[2] = target: T1, mouse Oat3 (Mus musculus, UniProt O88909); details: 90 nM [3H]estrone sulfate
T1 sequence (O88909 1-537): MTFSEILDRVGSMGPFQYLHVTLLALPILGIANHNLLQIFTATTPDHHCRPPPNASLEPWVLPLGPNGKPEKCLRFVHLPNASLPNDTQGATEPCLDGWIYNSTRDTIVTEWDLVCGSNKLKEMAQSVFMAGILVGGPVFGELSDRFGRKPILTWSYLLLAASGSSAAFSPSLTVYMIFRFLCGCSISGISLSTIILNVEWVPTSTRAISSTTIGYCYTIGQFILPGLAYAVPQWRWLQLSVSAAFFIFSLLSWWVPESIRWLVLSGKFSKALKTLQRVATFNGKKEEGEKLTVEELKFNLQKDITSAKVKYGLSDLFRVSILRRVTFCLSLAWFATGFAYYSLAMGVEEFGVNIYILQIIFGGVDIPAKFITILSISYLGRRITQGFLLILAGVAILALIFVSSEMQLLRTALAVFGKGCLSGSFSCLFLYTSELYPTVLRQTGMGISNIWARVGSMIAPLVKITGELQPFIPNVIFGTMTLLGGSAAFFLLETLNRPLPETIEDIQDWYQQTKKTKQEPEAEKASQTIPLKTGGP
Procedure: FIG. 13 oocytes three days after injection with either mouse Oat1 or mouse Oat3 cRNA. Oocytes were randomly sorted into test groups and 1 h uptake determined.
Transport Assays-Xenopus oocyte isolation procedures and uptake assay. Ovaries were removed from tricaine methanesulfonate anesthetized adult female Xenopus laevis and follicle-free stage V and stage VI oocytes were isolated by treatment with collagenase A. After an overnight recovery period in Barth's buffer at 18° C., oocytes were microinjected with 20 ng of capped cRNA synthesized from linearized cDNA (mMessage mMachine in vitro transcription kit, Ambion, Inc., Austin, Tex.). […] Oocyte radioactivity was measured in disintegrations/min (dpm) in a Packard 1600TR liquid scintillation counter with external quench correction.

[3] = tested on: choroid plexus; experiment: Accumulation in isolated choroid plexus, confocal fluorescence microscopy, wild-type and Oat3−/− mice; details: for reduction of cellular accumulation (cellular fluorescence) in CP from Oat3−/− mice: both, mouse, 45 min, 1 μM, pH 7.4
Source text: The CP is composed of capillary projections surrounded by a single layer of cells that protrude into the cerebrospinal fluid-filled ventricles of the brain. The orientation is such that the CSF bathes the apical membrane of the cell and the basal membrane is toward the underlying fenestrated capillary. (A and C) Transmitted light images of wild-type and Oat3^−/− CP, respectively, showing the tissue structure. (B and D) Corresponding fluorescence micrographs of the CP shown in (A) and (C). Confocal images were acquired 45 min after exposure to 1 μM FL in the aCSF medium. […] The positions of representative cells and capillaries (CUD) are indicated by arrows. A 20-μm bar is shown.
Fluorescence levels in cells and vessels of CP from 4 wild-type and 4 Out3^−/− mice were measured (n=5-10 adjacent cellular and capillary areas/CP). […] Data are given as mean ±S.E. for each animal.
Choroid plexus isolation. Adult male and female wild-type and Oat3^−/− mice were euthanized with CO2.
Confocal Fluorescence Microscopy. CP were imaged as using an inverted Zeiss model 510 laser scanning confocal microscope fitted with a 40μ water immersion objective (numeric aperture, 1.2). Samples were illuminated with the 488-nm line of an argon laser; a 510-nm dichroic filter was in the light path, and a long pass emission filter (515 nm) was positioned in front of the detector. […] For each CP, 5-10 adjacent cellular and capillary areas were selected. After background subtraction, the average pixel intensity for each area was calculated and the values reported graphically for each CP are the means ±S.E. for all selected areas (n˜5-10). Values reported in the text are mean ±S.E. of the individual mean values for each CP as determined above (n˜4-6 animals/group).

[4] = tested on: hepatic slices; experiment: Hepatic tissue slice uptake assay, wild-type and Oat3−/− mice; details: 1 h
Procedure: as §1, §2

SMILES: O=C1OC(c2ccc(O)c(S(=O)(=O)O)c2)(c2ccc(O)c(S(=O)(=O)O)c2)c2c(Br)c(Br)c(Br)c(Br)c21 [BSP, bromo-sulfophthalein]
inhibition of taurocholate, estrone sulfate and para-aminohippurate uptake in wild-type renal slices [1]: sensitive to inhibition
ES transport in Oat3−/− renal slices in the presence of inhibitor [1]: additional drop

inhibition of Oat3-mediated ES transport in oocytes ([2]; 1 mM probenecid): completely blocked
SMILES: CCCN(CCC)S(=O)(=O)c1ccc(C(=O)O)cc1 [probenecid]
inhibition of taurocholate, estrone sulfate and para-aminohippurate uptake in wild-type renal slices [1]: sensitive to inhibition
ES transport in Oat3−/− renal slices in the presence of inhibitor [1]: additional drop
inhibition of residual FL uptake in CP from Oat3 knockout animals [3]: probenecid-sensitive

reduction of cellular accumulation (cellular fluorescence) in CP from Oat3−/− mice ([3]; C57BL/6J): ~75%
reduction of cellular accumulation (cellular fluorescence) in CP from Oat3−/− mice [3]: about 75%
SMILES: O=C1OC2(c3ccc(O)cc3Oc3cc(O)ccc32)c2ccccc21 [FL, fluorescein]

SMILES: CC[N+](CC)(CC)CC [TEA, tetraethylammonium]
renal slice uptake in Oat3−/− mice compared with wild-type ([1]; 10 μM TEA): unaltered; also recorded: unaffected

SMILES: Nc1ccc(C(=O)NCC(=O)O)cc1 [PAH, para-aminohippurate]
mediated uptake in Oat3-expressing oocytes ([2]; 1 h uptake, 10 μM [3H]PAH, 500 nM [3H]taurocholate): observed
renal slice uptake in Oat3−/− mice compared with wild-type ([1]; 10 μM TEA): significant (p<0.001) decrease; also recorded: significantly reduced
hepatic slice uptake [4]: complete lack

SMILES: C=C[C@H]1C[N@@]2CC[C@H]1C[C@H]2[C@H](O)c1ccnc2ccc(OC)cc12 [Quinine sulfate, quinine sulfate]
inhibition of renal uptake of [14C]TEA ([1]; 200 μM quinine sulfate, 10 μM TEA): sensitive
